Measurements taken from patent US20190352268A1, “CANNABINOID RECEPTOR MEDIATING COMPOUNDS” (The USA, as represented by the Secretary, Department of …, priority 2015, published 2019).
Read-outs that look alike come from different tables or passages of the source.

Molecular target: CB1 (Mus musculus, UniProt P47746)
Assay: CB1 radioligand displacement assay in mouse brain membranes
Type: binding
Parameters: radioligand displacement assay in mouse brain membranes; from tissue; host or cells: mouse brain membranes
Settings: read-out: Ki CB1

Sequence of CB1 (P47746 whole entry): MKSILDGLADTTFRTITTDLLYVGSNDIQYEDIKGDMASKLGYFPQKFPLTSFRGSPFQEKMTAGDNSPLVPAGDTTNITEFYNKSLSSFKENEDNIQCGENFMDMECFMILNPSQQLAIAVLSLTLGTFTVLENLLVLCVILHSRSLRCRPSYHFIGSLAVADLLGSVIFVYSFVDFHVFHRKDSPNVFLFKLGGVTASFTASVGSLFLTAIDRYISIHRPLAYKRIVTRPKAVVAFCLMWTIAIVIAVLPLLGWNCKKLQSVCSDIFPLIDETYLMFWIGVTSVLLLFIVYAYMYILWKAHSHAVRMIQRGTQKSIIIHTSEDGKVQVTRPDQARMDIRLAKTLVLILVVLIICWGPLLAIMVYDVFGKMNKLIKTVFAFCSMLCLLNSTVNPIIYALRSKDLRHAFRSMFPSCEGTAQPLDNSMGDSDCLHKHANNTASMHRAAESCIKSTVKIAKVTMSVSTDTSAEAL

For CN(Cc1cccnc1)C(N)=NC(=NS(=O)(=O)c1ccc(Cl)cc1)N1CC(c2ccccc2)C(c2ccc(Cl)cc2)=N1 (stereo not shown) [Compound 48], the Ki (Table 2) was 0.147 µM.
N/C(=N\C(=N\S(=O)(=O)c1ccc(Cl)cc1)N1CC(c2ccccc2)C(c2ccc(Cl)cc2)=N1)N1CCCCC1 (stereo not shown) [Compound 53] was tested, and the Ki (Table 2) was 0.276 µM.
With NC(=NC(=NS(=O)(=O)c1ccc(Cl)cc1)N1CC(c2ccccc2)C(c2ccc(Cl)cc2)=N1)SCCCc1ccccc1 (stereo not shown) [Compound 26] the Ki (Table 2) was 0.19 µM.
COC(CN/C(N)=N/C(=N/S(=O)(=O)c1ccc(Cl)cc1)N1CC(c2ccccc2)C(c2ccc(Cl)cc2)=N1)OC (stereo not shown) [Compound 60] showed a Ki (Table 2) of 0.443 µM.
CC(C)(C)C(N)=NC(=NS(=O)(=O)c1ccc(C(F)(F)F)cc1)N1CC(c2ccccc2)C(c2ccc(Cl)cc2)=N1 (stereo not shown) [Compound 81] showed a Ki (Table 2) of 0.0034 µM.
Molecule NC(=NC(=NS(=O)(=O)c1ccc(Cl)cc1)N1CC(c2ccccc2)C(c2ccc(Cl)cc2)=N1)c1ccc(F)cc1 (stereo not shown) [Compound 10] has a Ki (Table 2) of 0.0079 µM.
With CC(C)(C)OC(=O)N/C(N)=N/C(=N/S(=O)(=O)c1ccc(Cl)cc1)N1CC(c2ccccc2)C(c2ccc(Cl)cc2)=N1 (stereo not shown) [Compound 41] the Ki (Table 1) was 0.0065 µM and the Ki (Table 2) was 0.0065 µM.
For NC(=NC(=NS(=O)(=O)c1ccc(Cl)cc1)N1CC(c2ccccc2)C(c2ccc(Cl)cc2)=N1)C12CC3CC(CC(C3)C1)C2 (stereo not shown) [Compound 7], the Ki (Table 2) was 0.015 µM.
CC(C)(C)C(N)=NC(=NS(=O)(=O)c1ccc(Cl)cc1)N1CC(c2ccccc2)C(c2ccc(Cl)cc2)=N1 (stereo not shown) [Compound 3] was tested, and the Ki (Table 1) was 0.007 µM and the Ki (Table 2) was 0.007 µM.
NC(=NC(=NS(=O)(=O)c1ccc(Cl)cc1)N1CC(c2ccccc2)C(c2ccc(Cl)cc2)=N1)c1ccccc1F (stereo not shown) [Compound 15] gave a Ki (Table 2) of 0.019 µM.
For NC(=NC(=NS(=O)(=O)c1ccc(Cl)cc1)N1CC(c2ccccc2)C(c2ccc(Cl)cc2)=N1)SCCc1ccccc1 (stereo not shown) [Compound 25], the Ki (Table 2) was 0.287 µM.
In the case of CC(=O)N/C(N)=N/C(=N/S(=O)(=O)c1ccc(C(C)(C)C)cc1)N1CC(c2ccccc2)C(c2ccc(Cl)cc2)=N1 (stereo not shown) [Compound 91], the Ki (Table 2) is reported as 0.0013 µM.
Molecule NC(=NC(=NS(=O)(=O)c1ccc(C(F)(F)F)cc1)N1CC(c2ccccc2)C(c2ccc(Cl)cc2)=N1)c1ccc(F)cc1F (stereo not shown) [Compound 80] has a Ki (Table 2) of 0.0066 µM.
For NC(=NC(=NS(=O)(=O)c1ccc(C(F)(F)F)cc1)N1CC(c2ccccc2)C(c2ccc(Cl)cc2)=N1)NC(=O)/C=C/c1ccccc1 (stereo not shown) [Compound 101], the Ki (Table 2) was 0.0055 µM.
Work on CC(C)N/C(N)=N/C(=N/S(=O)(=O)c1ccc(Cl)cc1)N1CC(c2ccccc2)C(c2ccc(Cl)cc2)=N1 (stereo not shown) [Compound 47] yielded a Ki (Table 2) of 0.516 µM.
NC(=NC(=NS(=O)(=O)c1ccc(C(F)(F)F)cc1)N1CC(c2ccccc2)C(c2ccc(Cl)cc2)=N1)c1ccc(F)cc1 (stereo not shown) [Compound 79] gave a Ki (Table 2) of 0.009 µM.
Work on N/C(=N\C(=N\S(=O)(=O)c1ccc(Cl)cc1)N1CC(c2ccccc2)C(c2ccc(Cl)cc2)=N1)NC1CCCC1 (stereo not shown) [Compound 56] yielded a Ki (Table 2) of 0.459 µM.
CC(N)=NC(=NS(=O)(=O)c1ccc(F)cc1)N1CC(c2ccccc2)C(c2ccc(Cl)cc2)=N1 (stereo not shown) [Compound 27] gave a Ki (Table 2) of 0.06 µM.
In the case of NC(=NC(=NS(=O)(=O)c1ccc(C(F)(F)F)cc1)N1CC(c2ccccc2)C(c2ccc(Cl)cc2)=N1)n1cccn1 (stereo not shown) [Compound 84], the Ki (Table 2) is reported as 0.028 µM.
In the case of N/C(=N\C(=N\S(=O)(=O)c1ccc(Cl)cc1)N1CC(c2ccccc2)C(c2ccc(Cl)cc2)=N1)NCCc1ccccc1 (stereo not shown) [Compound 51], the Ki (Table 2) is reported as 0.931 µM.
NC(=NC(=NS(=O)(=O)c1ccc(Cl)cc1)N1CC(c2ccccc2)C(c2ccc(Cl)cc2)=N1)c1cccc(Br)c1 (stereo not shown) [Compound 14] was tested, and the Ki (Table 2) was 0.056 µM.
Work on CON(C)/C(N)=N/C(=N/S(=O)(=O)c1ccc(Cl)cc1)N1CC(c2ccccc2)C(c2ccc(Cl)cc2)=N1 (stereo not shown) [Compound 42] yielded a Ki (Table 2) of 0.023 µM.
With N/C(=N/C(=N\S(=O)(=O)c1ccc(Cl)cc1)N1CC(c2ccccc2)C(c2ccc(Cl)cc2)=N1)c1ccc(F)cc1 (single isomer, unassigned) [Compound 10E1] the Ki (Table 2) was 0.0065 µM.
Work on CC(C)(C)C(N)=NC(=NS(=O)(=O)c1ccc(I)cc1)N1CC(c2ccccc2)C(c2ccc(Cl)cc2)=N1 (stereo not shown) [Compound 89] yielded a Ki (Table 2) of 0.0041 µM.
For N/C(=N\C(=N\S(=O)(=O)c1ccc(Cl)cc1)N1CC(c2ccccc2)C(c2ccc(Cl)cc2)=N1)NC1CCCCC1 (stereo not shown) [Compound 57], the Ki (Table 2) was 0.419 µM.
Molecule CN1CCN(/C(N)=N/C(=N/S(=O)(=O)c2ccc(Cl)cc2)N2CC(c3ccccc3)C(c3ccc(Cl)cc3)=N2)CC1 (stereo not shown) [Compound 54] has a Ki (Table 2) of 0.309 µM.
Work on NC(=NC(=NS(=O)(=O)c1ccc(Cl)cc1)N1CC(c2ccccc2)C(c2ccc(Cl)cc2)=N1)c1ccc([N+](=O)[O-])cc1 (stereo not shown) [Compound 9] yielded a Ki (Table 2) of 0.062 µM.
COCCN/C(N)=N/C(=N/S(=O)(=O)c1ccc(Cl)cc1)N1CC(c2ccccc2)C(c2ccc(Cl)cc2)=N1 (stereo not shown) [Compound 40] was tested, and the Ki (Table 2) was 0.848 µM.
For O=S(=O)(N=C(N=C1CCCCN1)N1CC(c2ccccc2)C(c2ccc(Cl)cc2)=N1)c1ccc(Cl)cc1 (stereo not shown) [Compound 6], the Ki (Table 2) was 0.029 µM.
CC(N)=NC(=NS(=O)(=O)c1ccc(C(C)(C)C)cc1)N1CC(c2ccccc2)C(c2ccc(Cl)cc2)=N1 (stereo not shown) [Compound 98] was tested, and the Ki (Table 2) was 0.048 µM.
For COc1ccc(S(=O)(=O)N=C(N=C(C)N)N2CC(c3ccccc3)C(c3ccc(Cl)cc3)=N2)cc1 (stereo not shown) [Compound 32], the Ki (Table 2) was 0.182 µM.
NC(=NC(=NS(=O)(=O)c1ccc(Cl)cc1)N1CC(c2ccccc2)C(c2ccc(Cl)cc2)=N1)c1ccc(F)cc1F (stereo not shown) [Compound 19] gave a Ki (Table 2) of 0.0077 µM.
Work on Cc1cc(C)n(C(N)=NC(=NS(=O)(=O)c2ccc(C(F)(F)F)cc2)N2CC(c3ccccc3)C(c3ccc(Cl)cc3)=N2)n1 (stereo not shown) [Compound 85] yielded a Ki (Table 2) of 0.0015 µM.
NC(=NC(=NS(=O)(=O)c1ccc(Cl)cc1)N1CC(c2ccccc2)C(c2ccc(Cl)cc2)=N1)NCC12CC3CC(CC(C3)C1)C2 (stereo not shown) [Compound 62] was tested, and the Ki (Table 2) was > 1 µM.
COCCN(CCOC)/C(N)=N/C(=N/S(=O)(=O)c1ccc(Cl)cc1)N1CC(c2ccccc2)C(c2ccc(Cl)cc2)=N1 (stereo not shown) [Compound 39] gave a Ki (Table 2) of 0.425 µM.
Molecule CCCN(CCC)/C(N)=N/C(=N/S(=O)(=O)c1ccc(Cl)cc1)N1CC(c2ccccc2)C(c2ccc(Cl)cc2)=N1 (stereo not shown) [Compound 37] has a Ki (Table 2) of 0.138 µM.
In the case of CCCCN(CC)/C(N)=N/C(=N/S(=O)(=O)c1ccc(Cl)cc1)N1CC(c2ccccc2)C(c2ccc(Cl)cc2)=N1 (stereo not shown) [Compound 36], the Ki (Table 2) is reported as 0.535 µM.
CN(Cc1ccccc1)/C(N)=N/C(=N/S(=O)(=O)c1ccc(Cl)cc1)N1CC(c2ccccc2)C(c2ccc(Cl)cc2)=N1 (stereo not shown) [Compound 49] showed a Ki (Table 2) of 0.343 µM.
N/C(=N\C(=N\S(=O)(=O)c1ccc(Cl)cc1)N1CC(c2ccccc2)C(c2ccc(Cl)cc2)=N1)n1cccn1 (stereo not shown) [Compound 63] showed a Ki (Table 2) of 0.011 µM.
Molecule CN(C)/C(N)=N/C(=N/S(=O)(=O)c1ccc(Cl)cc1)N1CC(c2ccccc2)C(c2ccc(Cl)cc2)=N1 (racemic) [Compound 44, rac-N-(amino(dimethylamino)methylene)-3-(4-chlorophenyl)-N-((4-chlorophenyl)sulfonyl)-4-phenyl-4,5-dihydro-1H-pyrazole-1-carboximidamide] has a Ki (Table 1) of 0.171 µM.
Molecule COc1cccc(C(N)=NC(=NS(=O)(=O)c2ccc(Cl)cc2)N2CC(c3ccccc3)C(c3ccc(Cl)cc3)=N2)c1 (stereo not shown) [Compound 17] has a Ki (Table 2) of 0.086 µM.
With N/C(=N\C(=N\S(=O)(=O)c1ccc(Cl)cc1)N1CC(c2ccccc2)C(c2ccc(Cl)cc2)=N1)N1CCOCC1 (stereo not shown) [Compound 52] the Ki (Table 1) was 0.193 µM and the Ki (Table 2) was 0.193 µM.
Work on CN(CCC#N)/C(N)=N/C(=N/S(=O)(=O)c1ccc(Cl)cc1)N1CC(c2ccccc2)C(c2ccc(Cl)cc2)=N1 (stereo not shown) [Compound 61] yielded a Ki (Table 2) of 0.203 µM.
CC(C)(C)N/C(N)=N/C(=N/S(=O)(=O)c1ccc(Cl)cc1)N1CC(c2ccccc2)C(c2ccc(Cl)cc2)=N1 (stereo not shown) [Compound 46] was tested, and the Ki (Table 2) was 0.049 µM.
Work on CC(N)=NC(=NS(=O)(=O)c1ccc(I)cc1)N1CC(c2ccccc2)C(c2ccc(Cl)cc2)=N1 (stereo not shown) [Compound 29] yielded a Ki (Table 2) of 0.01 µM.
In the case of Cc1cc(C)n(C(N)=NC(=NS(=O)(=O)c2ccc(Cl)cc2)N2CC(c3ccccc3)C(c3ccc(Cl)cc3)=N2)n1 (stereo not shown) [Compound 69], the Ki (Table 2) is reported as 0.01 µM.
Molecule NC(=NC(=NS(=O)(=O)c1ccc(Cl)cc1)N1CC(c2ccccc2)C(c2ccc(Cl)cc2)=N1)SCc1ccccc1 (stereo not shown) [Compound 24] has a Ki (Table 2) of 0.127 µM.
In the case of C=CCN(CC=C)/C(N)=N/C(=N/S(=O)(=O)c1ccc(Cl)cc1)N1CC(c2ccccc2)C(c2ccc(Cl)cc2)=N1 (stereo not shown) [Compound 35], the Ki (Table 2) is reported as 0.263 µM.
In the case of NC(=NC(=NS(=O)(=O)c1ccc(Cl)cc1)N1CC(c2ccccc2)C(c2ccc(Cl)cc2)=N1)NC12CC3CC(CC(C3)C1)C2 (stereo not shown) [Compound 64], the Ki (Table 2) is reported as > 1 µM.
With NC(=NC(=NS(=O)(=O)c1ccc(Cl)cc1)N1CC(c2ccccc2)C(c2ccc(Cl)cc2)=N1)c1ccc(Br)cc1 (stereo not shown) [Compound 20] the Ki (Table 2) was 0.027 µM.
NC(=NC(=NS(=O)(=O)c1ccc(I)cc1)N1CC(c2ccccc2)C(c2ccc(Cl)cc2)=N1)c1ccc(F)cc1 (stereo not shown) [Compound 87] gave a Ki (Table 2) of 0.012 µM.
For NC(=NC(=NS(=O)(=O)c1ccc(C(F)(F)F)cc1)N1CC(c2ccccc2)C(c2ccc(Cl)cc2)=N1)c1ccc(Cl)cc1 (stereo not shown) [Compound 82], the Ki (Table 2) was 0.016 µM.
With COCCN(C)/C(N)=N/C(=N/S(=O)(=O)c1ccc(Cl)cc1)N1CC(c2ccccc2)C(c2ccc(Cl)cc2)=N1 (stereo not shown) [Compound 43] the Ki (Table 2) was 0.908 µM.
Work on NC(=NC(=NS(=O)(=O)c1ccc(I)cc1)N1CC(c2ccccc2)C(c2ccc(Cl)cc2)=N1)c1ccc(F)cc1F (stereo not shown) [Compound 88] yielded a Ki (Table 2) of 0.0048 µM.
For CC(=O)N/C(N)=N/C(=N/S(=O)(=O)c1ccc(OC(F)(F)F)cc1)N1CC(c2ccccc2)C(c2ccc(Cl)cc2)=N1 (stereo not shown) [Compound 90], the Ki (Table 2) was 0.0018 µM.
Work on N/C(=N\C(=N\S(=O)(=O)c1ccc(Cl)cc1)N1CC(c2ccccc2)C(c2ccc(Cl)cc2)=N1)NCCc1c[nH]c2ccccc12 (stereo not shown) [Compound 58] yielded a Ki (Table 2) of 0.585 µM.
For CC(N)=NC(=NS(=O)(=O)c1ccc(C#N)cc1)N1CC(c2ccccc2)C(c2ccc(Cl)cc2)=N1 (stereo not shown) [Compound 100], the Ki (Table 2) was 0.016 µM.
In the case of COC(CN(C)C(N)=NC(=NS(=O)(=O)c1ccc(Cl)cc1)N1CC(c2ccccc2)C(c2ccc(Cl)cc2)=N1)OC (stereo not shown) [Compound 68], the Ki (Table 2) is reported as 0.443 µM.
Molecule CC(C)C(N)=NC(=NS(=O)(=O)c1ccc(Cl)cc1)N1CC(c2ccccc2)C(c2ccc(Cl)cc2)=N1 (stereo not shown) [Compound 5] has a Ki (Table 2) of 0.029 µM.
N/C(=N/C(=N\S(=O)(=O)c1ccc(Cl)cc1)N1CC(c2ccccc2)C(c2ccc(Cl)cc2)=N1)c1ccc(F)cc1 (single isomer, unassigned) [Compound 10E2] was tested, and the Ki (Table 2) was 0.524 µM.
CC(N)=NC(=NS(=O)(=O)c1ccc(Br)cc1)N1CC(c2ccccc2)C(c2ccc(Cl)cc2)=N1 (stereo not shown) [Compound 28] showed a Ki (Table 2) of 0.018 µM.
